Measurements reported in article PMC5706701, “Development of a homogenous high-throughput assay for inositol hexakisphosphate kinase 1 activity” (PLoS ONE, 2017).
Structures can show the parent of a compound that is named as a salt. One block for each molecule: values may come before it.

Target: T1, Human IP6K1 (Homo sapiens, UniProt Q92551)
T1 construct: GST (N, cleaved yes); made in house; host or cells: C43 E. coli, pGEX-6P-2
Experiment: IP6K1 high-throughput screen of the Sigma LOPAC (ADP-Glo Max, single point);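 also: final compound concentration 10µM in 5% DMSO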
Type: biochemical

[1] = Sigma LOPAC single-point screen, ADP-Glo Max raw signal per well
[2] = Sigma LOPAC single-point screen, Z-score from plate average and StDev
[3] = LOPAC single-point screen, ADP-Glo Max luminescence raw signal per well
[4] = LOPAC single-point screen, Z-score relative to plate average and StDev
[5] = LOPAC single-point screen, ADP-Glo Max raw signal per well
[6] = LOPAC single-point screen, Z-score against plate average and StDev
[7] = LOPAC single-point screen, Z-score from raw signal with plate average and StDev
[8] = LOPAC single-point screen, Z-score from plate average and StDev

T1 sequence (Q92551 whole entry): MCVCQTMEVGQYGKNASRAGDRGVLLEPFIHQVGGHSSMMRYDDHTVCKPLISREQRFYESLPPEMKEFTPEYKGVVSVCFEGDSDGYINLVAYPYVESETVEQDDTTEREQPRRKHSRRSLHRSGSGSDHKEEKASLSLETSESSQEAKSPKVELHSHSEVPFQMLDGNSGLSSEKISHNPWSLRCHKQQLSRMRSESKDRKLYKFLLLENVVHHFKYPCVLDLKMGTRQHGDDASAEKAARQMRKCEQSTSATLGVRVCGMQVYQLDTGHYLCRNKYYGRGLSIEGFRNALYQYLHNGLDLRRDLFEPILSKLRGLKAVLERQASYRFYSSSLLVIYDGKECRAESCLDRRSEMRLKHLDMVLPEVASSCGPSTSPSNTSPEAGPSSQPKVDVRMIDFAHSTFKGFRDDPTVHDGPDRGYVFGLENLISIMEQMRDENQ

- Raw Signal [1]: 56472
- Z-score [2]: 0.3492
Molecule: C=C1C(=O)O[C@H]2[C@H]1CC/C(C)=C/CC[C@@]1(C)O[C@@H]21 [Parthenolide]

- Raw Signal [1]: 57305
- Z-score [2]: 0.4892
Molecule: CC(C)NCC(O)c1ccc(O)c(O)c1.Cl (racemic) [(±)-Isoproterenol hydrochloride]

- Raw Signal [3]: 53212
- Z-score [4]: -0.828
Molecule: Nn1nnc2ccccc21 [1-Aminobenzotriazole]

Molecule: Br.Oc1ccc(C2CNCc3sccc32)cc1O (stereo not shown) [SKF 89626]
- Raw Signal [5]: 56262
- Z-score [6]: 0.04628

- Raw Signal [5]: 57343
- Z-score [7]: -0.1004
Molecule: Clc1ccc(C(c2ccc(Cl)cc2)n2cc[n+](CC(OCc3ccc(Cl)cc3Cl)c3ccc(Cl)cc3Cl)c2)cc1 (stereo not shown) [Calmidazolium chloride]

Molecule: Cc1cccc(C#Cc2ccccc2)n1.Cl
- Raw Signal [3]: 51049
- Z-score [4]: -0.562

Molecule: CCn1cnc2c(Nc3cccc(Cl)c3)nc(N[C@@H]3CCCC[C@@H]3N)nc21.Cl [CGP-74514A hydrochloride]
- Raw Signal [5]: 58874
- Z-score [6]: 0.1692

Molecule: O=C(O)CCCc1ccc(N(CCCl)CCCl)cc1 [Chlorambucil]
- Raw Signal [5]: 57590
- Z-score [6]: -0.05691

Molecule: N.N.N.N.N.N.N.N.N.N.N.N.N.N.[Cl-].[Cl-].[Cl-].[Cl-].[Cl-].[Cl-].[O-2].[O-2].[Ru+3].[Ru+3].[Ru+4] [Ruthenium red]
- Raw Signal [3]: 52989
- Z-score [4]: -0.5896

- Raw Signal [5]: 56085
- Z-score [6]: 0.01189
Molecule: CC(C)(C)c1cc(/C=C(\C#N)C(N)=S)cc(C(C)(C)C)c1O [Tyrphostin AG 879]

- Raw Signal [5]: 58651
- Z-score [6]: 0.13
Molecule: NCCNC(=O)Cc1ccc(NC(=O)Cc2ccc(Nc3ncnc4c3ncn4[C@@H]3O[C@H](CO)[C@@H](O)[C@H]3O)cc2)cc1 [Adenosine amine congener]

Molecule: COc1cc([C@@H]2c3cc4c(cc3[C@H](O)[C@H]3COC(=O)[C@H]23)OCO4)cc(OC)c1OC [Podophyllotoxin]
- Raw Signal [3]: 50929
- Z-score [4]: -0.5821

- Raw Signal [5]: 56870
- Z-score [7]: -0.1837
Molecule: N=C(N)NC(=O)c1nc(Cl)c(N2CCCCCC2)nc1N [5-(N,N-hexamethylene)amiloride]

Molecule: O=S(=O)(O)C1CCNCC1 [Piperidine-4-sulphonic acid]
- Raw Signal [5]: 54931
- Z-score [7]: -0.2123

- Raw Signal [1]: 61284
- Z-score [2]: 0.5937
Molecule: CCCCS(=N)(=O)CC[C@H](N)C(=O)O (stereo partly drawn) [L-Buthionine-sulfoximine]

Molecule: Cn1c(=O)c2c(nc(C=Cc3cccc(Cl)c3)n2C)n(C)c1=O [8-(3-Chlorostyryl)caffeine]
- Raw Signal [5]: 56359
- Z-score [6]: 0.2421

- Raw Signal [5]: 53600
- Z-score [7]: -0.3182
Molecule: O=C(O)C1=CCNCC1 [Isoguvacine hydrochloride]

Molecule: C=CCN1CC[C@@]2(C)c3cc(O)ccc3C[C@@H]1[C@@H]2C.Cl (racemic) [(±)-N-Allylnormetazocine hydrochloride]
- Raw Signal [3]: 52910
- Z-score [4]: -0.8812

- Raw Signal [3]: 51707
- Z-score [4]: -0.7027
Molecule: O=c1[nH]c2ccccc2n1CCCN1CCC(n2c(=O)[nH]c3cc(Cl)ccc32)CC1 [Domperidone]

Molecule: COc1ccccc1N1CCN(CCN(C(=O)C2CCCCC2)c2ccccn2)CC1.O=C(O)/C=C\C(=O)O [WAY-100635 maleate]
- Raw Signal [5]: 54317
- Z-score [7]: -0.3316

- Raw Signal [1]: 62871
- Z-score [2]: 1.33
Molecule: CN1CCN(CC(=O)N2c3ccccc3C(=O)Nc3cccnc32)CC1 [Pirenzepine dihydrochloride]

Molecule: C[N+](C)(C)CC#CCN1CCCC1=O [Oxotremorine methiodide]
- Raw Signal [3]: 63016
- Z-score [8]: 1.4488

- Raw Signal [1]: 64774
- Z-score [2]: 1.208
Molecule: CCc1cccc(N(C)C(N)=Nc2cccc3ccccc23)c1 [CNS-1102]

Molecule: Ro 20-1724
- Raw Signal [3]: 54602
- Z-score [4]: -0.5832

Molecule: COc1cccc(-c2cc(=O)c3ccccc3o2)c1N [PD 98,059]
- Raw Signal [5]: 54412
- Z-score [7]: -0.3131

Molecule: COc1ccc2c(c[n+](C)c3c4cc5c(cc4ccc23)OCO5)c1OC [Chelerythrine chloride]
- Raw Signal [3]: 66575
- Z-score [8]: 1.5256

- Raw Signal [5]: 54872
- Z-score [7]: -0.2238
Molecule: N#C/C(=C\c1ccc(O)c(O)c1)C(=O)Nc1ccccc1 [Tyrphostin AG 494]

- Raw Signal [1]: 60166
- Z-score [2]: 0.3968
Molecule: Nc1ncnc2c1ncn2C1CCCC1 [9-cyclopentyladenine]

Molecule: Cn1cnc2c(NC3CCCC3)ncnc21 [N6-Cyclopentyl-9-methyladenine]
- Raw Signal [5]: 52967
- Z-score [7]: -0.2397

- Raw Signal [3]: 52494
- Z-score [4]: -0.5429
Molecule: CC(CCc1ccc(O)cc1)NCCc1ccc(O)c(O)c1 (stereo not shown) [Dobutamine hydrochloride]

- Raw Signal [5]: 58771
- Z-score [6]: 0.1511
Molecule: CC(C)C[C@H](NC(=O)[C@H](O)[C@H](N)Cc1ccccc1)C(=O)O [Epibestatin hydrochloride]

Molecule: CCCCCCCCCCCCCCCC(=O)NCC(COP(=O)([O-])OCC[N+](C)(C)C)OCC (racemic)
- Raw Signal [3]: 63126
- Z-score [8]: 1.616
